# Results taken from the supplement of paper PMC10307832.
# How the values were obtained:
# Test in all cases: relative viability (nuclei count vs DMSO), 5 days (fraction); higher = more cells survive
# Metformin + Tozasertib = compound: CN(C)C(=N)NC(=N)N [Metformin] + Cc1cc(Nc2cc(N3CCN(C)CC3)nc(Sc3ccc(NC(=O)C4CC4)cc3)n2)n[nH]1 [Tozasertib] (partner 0.1 µM)
# In short: (§1)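 A single step with final 0.05% Triton X-100, 1% formaldehyde and 1 ug/ml Hoechst fixed the cells and stained nuclei 5 days after treatment. Lung cancer cell lines in 1536-well plates had been treated by pin tool the day after seeding with one drug alone or a fixed anchor-drug dose plus five library-drug doses (not always all listed) in √10 steps, and nuclei were counted on 4× images. Relative viability is the ratio of nuclei in treated wells to nuclei in vehicle wells, taken as the median of duplicate plates.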
# Metformin + Phenformin = compound: CN(C)C(=N)NC(=N)N [Metformin] + N=C(N)NC(=N)NCCc1ccccc1 [Phenformin] (partner 250 µM)
# In short: as §1
# Apatinib + Bortezomib = compound: N#CC1(c2ccc(NC(=O)c3cccnc3NCc3ccncc3)cc2)CCCC1 [Apatinib] + CC(C)C[C@H](NC(=O)[C@H](Cc1ccccc1)NC(=O)c1cnccn1)B(O)O [Bortezomib] (partner 0.002 µM)
# In short: as §1
# Apatinib + Lapatinib = compound: N#CC1(c2ccc(NC(=O)c3cccnc3NCc3ccncc3)cc2)CCCC1 [Apatinib] + CS(=O)(=O)CCNCc1ccc(-c2ccc3ncnc(Nc4ccc(OCc5cccc(F)c5)c(Cl)c4)c3c2)o1 [Lapatinib] (partner 2 µM)
# In short: as §1
Cell Line,relative viability (Metformin + Tozasertib; first compound 10 µM),relative viability (Metformin + Tozasertib; first compound 31.62 µM),relative viability (Metformin + Tozasertib; first compound 100 µM),relative viability (Metformin + Tozasertib; first compound 316.23 µM),relative viability (Metformin + Tozasertib; first compound 1000 µM),relative viability (Metformin + Phenformin; first compound 10 µM),relative viability (Metformin + Phenformin; first compound 31.62 µM),relative viability (Metformin + Phenformin; first compound 100 µM),relative viability (Metformin + Phenformin; first compound 316.23 µM),relative viability (Metformin + Phenformin; first compound 1000 µM),relative viability (Apatinib + Bortezomib; first compound 0.08 µM),relative viability (Apatinib + Bortezomib; first compound 0.253 µM),relative viability (Apatinib + Bortezomib; first compound 0.8 µM),relative viability (Apatinib + Bortezomib; first compound 2.53 µM),relative viability (Apatinib + Bortezomib; first compound 8 µM),relative viability (Apatinib + Lapatinib; first compound 0.08 µM),relative viability (Apatinib + Lapatinib; first compound 0.253 µM),relative viability (Apatinib + Lapatinib; first compound 0.8 µM),relative viability (Apatinib + Lapatinib; first compound 2.53 µM),relative viability (Apatinib + Lapatinib; first compound 8 µM)
NCI-H650,0.831,0.8,0.973,0.48,0.919,0.446,0.509,0.357,0.436,0.494,0.888,0.835,0.834,0.543,0.754,0.799,0.982,0.784,0.74,0.583
NCI-H1975,0.888,0.905,0.872,0.78,1.08,0.422,0.436,0.418,0.414,0.404,0.466,0.417,0.314,0.323,0.388,0.929,1.15,0.835,0.738,0.904
ChaGo-K-1,0.254,0.281,0.246,0.202,0.22,0.539,0.498,0.488,0.489,0.557,–,1.19,0.847,0.857,1.03,–,–,–,–,–
COR-L 105,0.355,0.336,0.37,0.307,0.321,0.727,0.61,0.65,0.568,0.494,1.12,0.897,0.901,0.605,0.658,0.358,0.342,0.354,0.336,0.33
